Source: patent publication US20090304692A1, “TRIAZINE COMPOUNDS AS PI3 KINASE AND MTOR INHIBITORS” (Wyeth, priority 2008, published 2009)
Values joined by “and” are separate entries in the source; they are usually repeats but may differ in a detail not shown here. Identical values can stand only once. Like-named read-outs stand apart in the source and are kept apart here.

How the values were obtained:
PI3K-α = PI3K-α (Homo sapiens, UniProt P42336); test: PI3K-alpha fluorescence polarization assay
[1] = test system: human breast MDA-MB-361 tumor cell line; test: In vitro cell culture growth assay (MTS), MDA-MB-361; type: cell-based; details: Homo sapiens, MTS cell growth assay, three days after drug treatment, read-out: IC50 MDA-MB-361
PI3K-γ = PI3K-γ (Homo sapiens, UniProt P48736); test: PI3K-gamma fluorescence polarization assay; details: read-out: IC50 PI3Kγ
[2] = test system: human prostate PC3-mm2 tumor cell line; test: In vitro cell culture growth assay (MTS), PC3-mm2; type: cell-based; details: Homo sapiens, PC3MM2, 72 h, MTS cell growth assay, three days after drug treatment, read-out: IC50 PC3-mm2
Human mTOR (FLAG-TOR) = Human mTOR (FLAG-TOR) (Homo sapiens, UniProt P42345); test: mTOR kinase assay (DELFIA format, purified enzyme); type: biochemical; details: read-out: IC50 mTOR
[3] = MDA-MB-361, 72 h, MDA-MB-361 cells

PI3K-γ, sequence (P48736 whole entry, species assumed): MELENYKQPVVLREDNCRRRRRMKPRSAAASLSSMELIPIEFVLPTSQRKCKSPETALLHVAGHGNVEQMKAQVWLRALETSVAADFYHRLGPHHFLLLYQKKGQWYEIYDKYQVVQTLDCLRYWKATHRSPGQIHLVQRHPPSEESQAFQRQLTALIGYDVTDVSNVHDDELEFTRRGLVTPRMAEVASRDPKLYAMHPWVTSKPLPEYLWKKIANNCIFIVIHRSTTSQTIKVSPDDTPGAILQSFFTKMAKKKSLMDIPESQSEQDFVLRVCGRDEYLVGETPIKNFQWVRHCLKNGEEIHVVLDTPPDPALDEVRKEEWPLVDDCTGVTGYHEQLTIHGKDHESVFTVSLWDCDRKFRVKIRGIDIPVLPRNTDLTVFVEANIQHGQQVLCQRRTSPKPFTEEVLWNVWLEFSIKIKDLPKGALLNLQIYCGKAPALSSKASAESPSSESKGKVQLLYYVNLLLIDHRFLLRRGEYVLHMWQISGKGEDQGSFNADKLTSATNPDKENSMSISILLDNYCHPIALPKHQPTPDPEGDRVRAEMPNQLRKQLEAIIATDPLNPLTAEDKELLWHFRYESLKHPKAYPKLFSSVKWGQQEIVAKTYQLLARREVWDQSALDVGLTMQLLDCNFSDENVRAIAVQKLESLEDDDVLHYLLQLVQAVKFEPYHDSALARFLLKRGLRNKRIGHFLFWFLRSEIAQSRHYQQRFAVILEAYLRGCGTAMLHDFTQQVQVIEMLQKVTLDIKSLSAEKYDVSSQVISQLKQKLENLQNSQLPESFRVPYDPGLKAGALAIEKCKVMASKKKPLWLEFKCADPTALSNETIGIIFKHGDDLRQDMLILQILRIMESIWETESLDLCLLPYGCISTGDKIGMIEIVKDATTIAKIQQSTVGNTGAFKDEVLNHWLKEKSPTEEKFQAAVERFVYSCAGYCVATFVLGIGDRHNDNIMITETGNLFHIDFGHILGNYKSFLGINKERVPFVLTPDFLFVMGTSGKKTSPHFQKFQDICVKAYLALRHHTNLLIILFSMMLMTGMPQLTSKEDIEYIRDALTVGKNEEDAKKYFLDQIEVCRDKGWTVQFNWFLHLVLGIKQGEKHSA
Human mTOR (FLAG-TOR), sequence (P42345 1360-2549 limits assumed): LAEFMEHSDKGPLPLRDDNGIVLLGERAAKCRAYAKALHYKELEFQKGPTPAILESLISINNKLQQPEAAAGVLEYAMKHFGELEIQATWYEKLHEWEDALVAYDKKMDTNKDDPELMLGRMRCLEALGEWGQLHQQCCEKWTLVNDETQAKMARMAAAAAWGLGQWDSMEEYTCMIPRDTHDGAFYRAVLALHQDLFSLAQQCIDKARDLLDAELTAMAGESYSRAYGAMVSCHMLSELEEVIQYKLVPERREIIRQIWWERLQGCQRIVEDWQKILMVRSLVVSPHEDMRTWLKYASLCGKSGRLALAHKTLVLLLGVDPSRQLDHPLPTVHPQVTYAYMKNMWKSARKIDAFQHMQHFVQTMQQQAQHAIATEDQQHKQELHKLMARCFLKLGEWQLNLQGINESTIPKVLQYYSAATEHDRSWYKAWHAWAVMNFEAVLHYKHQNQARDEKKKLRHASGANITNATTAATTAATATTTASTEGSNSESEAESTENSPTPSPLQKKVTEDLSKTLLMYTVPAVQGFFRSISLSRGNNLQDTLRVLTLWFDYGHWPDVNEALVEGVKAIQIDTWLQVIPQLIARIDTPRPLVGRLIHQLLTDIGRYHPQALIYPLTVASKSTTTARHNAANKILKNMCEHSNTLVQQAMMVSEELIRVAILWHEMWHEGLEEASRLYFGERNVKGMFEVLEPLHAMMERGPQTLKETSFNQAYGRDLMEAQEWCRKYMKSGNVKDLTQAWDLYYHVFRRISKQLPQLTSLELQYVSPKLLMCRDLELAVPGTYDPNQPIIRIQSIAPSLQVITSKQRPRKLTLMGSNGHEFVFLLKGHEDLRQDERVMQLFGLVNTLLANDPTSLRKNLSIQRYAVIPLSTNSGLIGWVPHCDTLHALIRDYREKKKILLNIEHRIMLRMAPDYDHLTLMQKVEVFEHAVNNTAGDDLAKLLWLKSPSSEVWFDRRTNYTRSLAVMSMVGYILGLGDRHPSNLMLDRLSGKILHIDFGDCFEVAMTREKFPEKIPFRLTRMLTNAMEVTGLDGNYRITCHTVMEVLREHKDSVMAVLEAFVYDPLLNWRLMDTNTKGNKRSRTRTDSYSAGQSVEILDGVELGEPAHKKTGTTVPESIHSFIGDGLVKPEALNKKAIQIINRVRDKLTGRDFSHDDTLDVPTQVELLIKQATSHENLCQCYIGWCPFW
PI3K-α, sequence (P42336 whole entry, species assumed): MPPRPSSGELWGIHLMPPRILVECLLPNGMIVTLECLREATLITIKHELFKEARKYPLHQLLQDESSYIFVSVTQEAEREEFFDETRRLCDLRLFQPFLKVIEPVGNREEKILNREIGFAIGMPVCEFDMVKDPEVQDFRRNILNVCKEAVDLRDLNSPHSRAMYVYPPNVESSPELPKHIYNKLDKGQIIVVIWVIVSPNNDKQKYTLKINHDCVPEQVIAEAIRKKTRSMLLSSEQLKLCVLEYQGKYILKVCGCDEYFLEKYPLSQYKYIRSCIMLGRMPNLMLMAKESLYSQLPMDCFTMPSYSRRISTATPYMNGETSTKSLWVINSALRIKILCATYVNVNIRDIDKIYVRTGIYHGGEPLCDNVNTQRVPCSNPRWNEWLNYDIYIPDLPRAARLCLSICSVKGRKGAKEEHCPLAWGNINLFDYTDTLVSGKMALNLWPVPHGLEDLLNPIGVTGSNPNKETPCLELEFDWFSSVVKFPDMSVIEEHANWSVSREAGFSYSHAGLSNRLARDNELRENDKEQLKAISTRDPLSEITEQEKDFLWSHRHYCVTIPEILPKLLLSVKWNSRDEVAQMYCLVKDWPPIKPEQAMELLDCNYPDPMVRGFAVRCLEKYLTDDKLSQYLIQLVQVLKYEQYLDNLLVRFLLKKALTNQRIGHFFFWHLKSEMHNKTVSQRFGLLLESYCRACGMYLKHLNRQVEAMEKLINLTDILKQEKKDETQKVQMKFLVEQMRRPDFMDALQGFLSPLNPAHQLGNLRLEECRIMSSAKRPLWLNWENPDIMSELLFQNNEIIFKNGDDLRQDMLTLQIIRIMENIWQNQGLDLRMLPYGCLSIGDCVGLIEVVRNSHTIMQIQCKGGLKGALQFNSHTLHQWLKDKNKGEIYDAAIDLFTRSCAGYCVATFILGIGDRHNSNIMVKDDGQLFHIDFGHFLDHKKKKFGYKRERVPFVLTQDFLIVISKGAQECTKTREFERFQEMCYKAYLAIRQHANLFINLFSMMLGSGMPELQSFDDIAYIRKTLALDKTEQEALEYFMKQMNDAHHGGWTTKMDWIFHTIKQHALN
PI3K-α, sequence (P27986 whole entry partner, species assumed): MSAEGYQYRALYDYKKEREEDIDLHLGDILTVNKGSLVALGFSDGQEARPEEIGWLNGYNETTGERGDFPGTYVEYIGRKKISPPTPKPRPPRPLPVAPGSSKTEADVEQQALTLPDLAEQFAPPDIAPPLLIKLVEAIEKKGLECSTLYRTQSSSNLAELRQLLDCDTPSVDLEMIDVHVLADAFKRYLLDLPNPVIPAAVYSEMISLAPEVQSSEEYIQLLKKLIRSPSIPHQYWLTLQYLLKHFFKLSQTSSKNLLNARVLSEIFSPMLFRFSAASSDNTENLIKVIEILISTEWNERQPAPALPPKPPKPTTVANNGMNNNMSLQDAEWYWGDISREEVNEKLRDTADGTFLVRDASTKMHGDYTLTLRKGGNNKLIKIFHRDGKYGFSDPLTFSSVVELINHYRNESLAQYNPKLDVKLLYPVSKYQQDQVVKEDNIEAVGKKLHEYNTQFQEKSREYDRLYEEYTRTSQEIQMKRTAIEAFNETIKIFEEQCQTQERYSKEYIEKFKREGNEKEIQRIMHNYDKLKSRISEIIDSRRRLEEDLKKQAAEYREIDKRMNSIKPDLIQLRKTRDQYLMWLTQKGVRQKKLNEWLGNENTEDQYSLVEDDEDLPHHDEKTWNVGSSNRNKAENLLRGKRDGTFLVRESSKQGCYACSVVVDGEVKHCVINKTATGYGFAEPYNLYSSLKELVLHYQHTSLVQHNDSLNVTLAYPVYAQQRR

| SMILES | IC50 (PI3K-α; read-out: IC50 PI3Kα) [nM] | IC50 ([1]; 72 h, MDA-MB-361 cells) [nM] | IC50 (PI3K-γ) [nM] | IC50 ([2]; PC3-mm2 cells) [nM] | IC50 [2] [nM] | IC50 (Human mTOR (FLAG-TOR)) | IC50 ([1]; MDA-MB-361, 72 h) [nM] | other results |
| --- | --- | --- | --- | --- | --- | --- | --- | --- |
| O=C(Nc1ccncc1)Nc1ccc(-c2nc(N3CCOCC3)nc(N3C4CCC3COC4)n2)cc1 [Example 34, 1-{4-[4-morpholin-4-yl-6-(3-oxa-8-azabicyclo[3.2.1]oct-8-yl)-1,3,5-triazin-2-yl]phenyl}-3-pyridin-4-ylurea] | 9 | – | 95 | 41 | 41 | 0.49 nM and 0.48 nM | 28 | IC50 (PI3K-α; read-out: IC50 PI3Kα, listed as 669): 8 nM; IC50 (PI3K-γ; listed as 669): 89 nM |
| CCCCc1nc(-c2ccc(NC(=O)Nc3ccc(C(=O)NC4CCN(C)CC4)cc3)cc2)nc(N2CCOCC2)n1 [Example 272, 4-({[4-(4-butyl-6-morpholin-4-yl-1,3,5-triazin-2-yl)phenyl]carbamoyl}amino)-N-(1-methylpiperidin-4-yl)benzamide] | 5 | – | 54 | – | 340 | 30 nM | 70 | – |
| CN(C)C(=O)N1CCN(c2nc(-c3ccc(NC(=O)Nc4ccc(C(=O)Nc5ccnnc5)cc4)cc3)nc(N3CCOCC3)n2)CC1 [Example 644, N,N-dimethyl-4-{4-morpholin-4-yl-6-[4-({[4-(pyridazin-4-ylcarbamoyl)phenyl]carbamoyl}amino)phenyl]-1,3,5-triazin-2-yl}piperazine-1-carboxamide] | 7.8 | 51 | 59.5 | 185 | – | 1 nM | – | – |
| O=C(Nc1ccc(-c2nc(N3CCOCC3)nc(N3CCC4(CC3)OCCO4)n2)cc1)Nc1cccnc1 [Example 131, 1-{4-[4-(1,4-dioxa-8-azaspiro[4.5]dec-8-yl)-6-morpholin-4-yl-1,3,5-triazin-2-yl]phenyl}-3-pyridin-3-ylurea] | 25 | – | 336 | 839 | 839 | 14.5 nM | 696 | IC50 (PI3K-α; read-out: IC50 PI3Kα, listed as 706): 25.5 nM |
| O=C(Nc1ccc(C(=O)O)cc1)Nc1ccc(-c2nc(N3CCOCC3)nc(N3C4CCC3COC4)n2)cc1 [Example 764, 4-[({4-[4-morpholin-4-yl-6-(3-oxa-8-azabicyclo[3.2.1]oct-8-yl)-1,3,5-triazin-2-yl]phenyl}carbamoyl)amino]benzoic acid] | 8.5 | – | 67.5 | 678 | – | 0.21 nM | – | IC50 [1, 3]: 628 nM |
| CN(C)CCNC(=O)c1ccc(NC(=O)Nc2ccc(-c3nc(-c4cccs4)nc(N4CCOCC4)n3)cc2)cc1 [Example 563, N-[2-(dimethylamino)ethyl]-4-[({4-[4-morpholin-4-yl-6-(2-thienyl)-1,3,5-triazin-2-yl]phenyl}carbamoyl)amino]benzamide] | 2.5 | 10 | 33.5 | 171 | – | 3 nM | – | – |
| O=C(NCCN1CCCCC1)Nc1ccc(NC(=O)Nc2ccc(-c3nc(N4CCOCC4)nc(N4CCOCC4)n3)cc2)cc1 [Example 501, 1-[4-(4,6-dimorpholin-4-yl-1,3,5-triazin-2-yl)phenyl]-3-(4-{[(2-piperidin-1-ylethyl)carbamoyl]amino}phenyl)urea] | < 1.75 | < 31 | 6.5 | 41 | – | 0.69 nM | – | – |
| CC(C)(C)OC(=O)N1CCC(Oc2nc(-c3ccc(NC(=O)Nc4ccncc4)cc3)nc(N3CCOCC3)n2)CC1 [Example 691, tert-butyl 4-[(4-morpholin-4-yl-6-{4-[(pyridin-4-ylcarbamoyl)amino]phenyl}-1,3,5-triazin-2-yl)oxy]piperidine-1-carboxylate] | 6 | 52 | 199 | 131 | – | 1.35 nM | – | – |
| Cc1cc(NC(=O)Nc2ccc(-c3nc(OC4CCOCC4)nc(N4CCOCC4)n3)cc2)ccn1 [Example 63, 1-(2-methylpyridin-4-yl)-3-{4-[4-morpholin-4-yl-6-(tetrahydro-2H-pyran-4-yloxy)-1,3,5-triazin-2-yl]phenyl}urea] | 5 | – | 36 | – | 62 | 1.95 nM | 69 | – |
| O=C(Nc1ccc(C(=O)NCCc2ccccn2)cc1)Nc1ccc(-c2nc(N3CCOCC3)nc(N3C4COCC3COC4)n2)cc1 [Example 778, 4-[({4-[4-(3,7-dioxa-9-azabicyclo[3.3.1]non-9-yl)-6-morpholin-4-yl-1,3,5-triazin-2-yl]phenyl}carbamoyl)amino]-N-(2-pyridin-2-ylethyl)benzamide] | 11.5 | 17 | 126 | 29 | – | 0.28 nM | – | – |
| CN(C)C1CCN(C(=O)c2ccc(NC(=O)Nc3ccc(-c4nc(N5CCOCC5)nc(N5C6CCCC5COC6)n4)cc3)cc2)CC1 [Example 794, 1-(4-{[4-(dimethylamino)piperidin-1-yl]carbonyl}phenyl)-3-{4-[4-morpholin-4-yl-6-(3-oxa-9-azabicyclo[3.3.1]non-9-yl)-1,3,5-triazin-2-yl]phenyl}urea] | 4.1 | – | 26 | 20 | – | 0.63 nM | – | IC50 [1, 3]: 2 nM |
| O=C(Nc1ccc(C(=O)N2CCNCC2)cc1)Nc1ccc(-c2nc(N3CCOCC3)nc(N3C4CCC3COC4)n2)cc1 [Example 756, 1-{4-[4-morpholin-4-yl-6-(3-oxa-8-azabicyclo[3.2.1]oct-8-yl)-1,3,5-triazin-2-yl]phenyl}-3-[4-(piperazin-1-ylcarbonyl)phenyl]urea] | 0.5 | – | 7 | 12 | – | 0.2 nM | – | IC50 [1, 3]: < 3 nM |
| CC(C)c1nc(-c2ccc(NC(=O)Nc3ccc(C(=O)Nc4cccnc4)cc3)cc2)nc(N2CCOCC2)n1 [Example 310, 4-[({4-[4-(1-methylethyl)-6-morpholin-4-yl-1,3,5-triazin-2-yl]phenyl}carbamoyl)amino]-N-pyridin-3-ylbenzamide] | 14 | – | 82 | – | 117 | 5.9 nM | 44 | – |

More lines, main results first:

| IC50 (PI3K-α; read-out: IC50 PI3Kα) [nM] | IC50 ([1]; 72 h, MDA-MB-361 cells) [nM] | IC50 (PI3K-γ) [nM] | IC50 ([2]; PC3-mm2 cells) [nM] | IC50 [2] [nM] | IC50 (Human mTOR (FLAG-TOR)) | IC50 ([1]; MDA-MB-361, 72 h) [nM] | SMILES | other results |
| --- | --- | --- | --- | --- | --- | --- | --- | --- |
| 1 | < 21.7 | 6 | 12 | 12 | 1.6 nM | – | CN(C)CCN(C)C(=O)c1ccc(NC(=O)Nc2ccc(-c3nc(C4=CCOCC4)nc(N4CCOCC4)n3)cc2)cc1 [Example 240, 4-[({4-[4-(3,6-dihydro-2H-pyran-4-yl)-6-morpholin-4-yl-1,3,5-triazin-2-yl]phenyl}carbamoyl)amino]-N-[2-(dimethylamino)ethyl]-N-methylbenzamide] | IC50 (PI3K-α; read-out: IC50 PI3Kα, listed as 506): 0.3 nM; IC50 (PI3K-γ; listed as 506): 7 nM |
| 10 | – | 32 | 84 | 84 | 4.7 nM and 4.05 nM | 83 | O=C(Nc1ccncc1)Nc1ccc(-c2nc(N3CCOCC3)nc(N3CC4COC(C3)O4)n2)cc1 (stereo not drawn) [Example 282, 1-{4-[4-(6,8-dioxa-3-azabicyclo[3.2.1]oct-3-yl)-6-morpholin-4-yl-1,3,5-triazin-2-yl]phenyl}-3-pyridin-4-ylurea] | IC50 (PI3K-α; read-out: IC50 PI3Kα, listed as 740): 11.5 nM; IC50 (PI3K-γ; listed as 740): 34.5 nM |
| 1.8 | – | 10 | 25.5 | – | 1.35 nM | – | CN(C)C(=O)Nc1ccc(NC(=O)Nc2ccc(-c3nc(N4CCOCC4)nc(N4CCOCC4)n3)cc2)cc1 [Example 504, 1-{4-[(dimethylcarbamoyl)amino]phenyl}-3-[4-(4,6-dimorpholin-4-yl-1,3,5-triazin-2-yl)phenyl]urea] | IC50 [1, 3]: 22.5 nM |
| 23 | – | 81 | – | 4030 | 7.3 nM | 1500 | O=C(Nc1ccc(C(=O)O)cc1)Nc1ccc(-c2nc(C3=CCOCC3)nc(N3CCOCC3)n2)cc1 [Example 227, 4-[({4-[4-(3,6-dihydro-2H-pyran-4-yl)-6-morpholin-4-yl-1,3,5-triazin-2-yl]phenyl}carbamoyl)amino]benzoic acid] | – |
| 0.7 | – | 12 | 36.3 | 36.3 | 0.9 nM and 0.97 nM | 12 | CN(C)CCNC(=O)c1ccc(NC(=O)Nc2ccc(-c3nc(C4=CCOCC4)nc(N4CCOCC4)n3)cc2)cc1 [Example 284, 4-[({4-[4-(3,6-dihydro-2H-pyran-4-yl)-6-morpholin-4-yl-1,3,5-triazin-2-yl]phenyl}carbamoyl)amino]-N-[2-(dimethylamino)ethyl]benzamide] | IC50 (PI3K-α): < 1.9 nM; IC50 (PI3K-γ; listed as 508): 12.5 nM |
| 4.1 | 9 | 38 | 27 | – | 1 nM | – | C[C@H]1COCCN1c1nc(-c2ccc(NC(=O)Nc3ccc(C(=O)N4CCN(C)CC4)cc3)cc2)nc(N2CCOC[C@@H]2C)n1 [Example 565, 1-(4-{4,6-bis[(3S)-3-methylmorpholin-4-yl]-1,3,5-triazin-2-yl}phenyl)-3-{4-[(4-methylpiperazin-1-yl)carbonyl]phenyl}urea] | – |
| 12 | – | 133 | – | 60 | 8.55 nM | 42 | CC(O)c1ccc(NC(=O)Nc2ccc(-c3nc(N4CCOCC4)nc(N4CCOC[C@@H]4C)n3)cc2)cc1 (stereo partly drawn) [Example 93, 1-[4-(1-hydroxyethyl)phenyl]-3-(4-{4-[(3S)-3-methylmorpholin-4-yl]-6-morpholin-4-yl-1,3,5-triazin-2-yl}phenyl)urea] | – |
